# What was measured:
# [1] = Human liver microsome (HLM) clearance assay; format: in vitro ADME; conditions: human liver microsomes 0.5 mg/mL, NADPH 1 mM, 0.5 μM compound, 40 min
# Protocol: Example 63: Human Liver Microsome (HLM) Clearance Assay
# Samples were taken out before addition of NADPH, and at 5, 10, 20 and 40 minutes thereafter and protein precipitation using cold acetonitrile with added internal standard was performed prior to centrifugation and sample analysis using compound specific LCMS/MS methods. Control incubations in buffer and without NADPH were performed in the same manner. Compound depletion was determined and apparent clearance (CLapp) was calculated.
# Solubility assay = format: physicochemical; conditions: 0.067 M phosphate buffer pH 6.5, 24 hours shaking, from 10 mM DMSO stock; for solubility at 24 h: aqueous buffer, kinetic from dmso stock
# Protocol: After centrifugation, the supernatant was analyzed by HPLC-UV. The solubility was defined as the concentration of the test substance in the selected solvent. It was determined by correlation with an external standard calibration curve.
Compound,HLM Clapp [1],solubility at 24 h (Solubility assay),Solubility at pH 6.5 (Solubility assay)
"Cc1cc(-c2ccc(NC(=O)[C@@H](NC(=O)c3ccnn3CC3CC3)C(C3CC3)C3CC3)nc2F)c(C)[n+]([O-])c1 [Example 29, 2-(cyclopropylmethyl)-N-[(1S)-1-(dicyclopropylmethyl)-2-[[5-(2,5-dimethyl-1-oxido-pyridin-1-ium-3-yl)-6-fluoro-2-pyridyl]amino]-2-oxo-ethyl]pyrazole-3-carboxamide]",8 mL/min/kg,–,–
"Cc1cc(-c2ccc(NC(=O)[C@@H](NC(=O)c3ccnn3CC(C)C)C(C3CC3)C3CC3)nc2F)c(C)[n+]([O-])c1 [Example 28, N-[(1S)-1-(dicyclopropylmethyl)-2-[[5-(2,5-dimethyl-1-oxido-pyridin-1-ium-3-yl)-6-fluoro-2-pyridyl]amino]-2-oxo-ethyl]-2-isobutyl-pyrazole-3-carboxamide]",>750 mL/min/kg,–,–
"CCCn1nccc1C(=O)N[C@H](C(=O)Nc1ccc(-c2cc(C)c[n+]([O-])c2C)c(F)n1)C(C1CC1)C1CC1 [Example 20, N-[(1S)-1-(dicyclopropylmethyl)-2-[[5-(2,5-dimethyl-1-oxido-pyridin-1-ium-3-yl)-6-fluoro-2-pyridyl]amino]-2-oxo-ethyl]-2-propyl-pyrazole-3-carboxamide]",74 mL/min/kg,38 µg/mL,–
"Cc1cc(-c2ccc(NC(=O)[C@@H](NC(=O)c3conc3C(C)C)C(C3CC3)C3CC3)nc2F)c(C)[n+]([O-])c1 [Example 22, N-[(1S)-1-(dicyclopropylmethyl)-2-[[5-(2,5-dimethyl-1-oxido-pyridin-1-ium-3-yl)-6-fluoro-2-pyridyl]amino]-2-oxo-ethyl]-3-isopropyl-isoxazole-4-carboxamide]",73 mL/min/kg,28 µg/mL,–
"Cc1cc(-c2ccc(NC(=O)[C@@H](NC(=O)c3ccnn3CC3CC(F)(F)C3)C(C3CC3)C3CC3)nc2F)c(C)[n+]([O-])c1 [Example 32, N-[(1S)-1-(dicyclopropylmethyl)-2-[[5-(2,5-dimethyl-1-oxido-pyridin-1-ium-3-yl)-6-fluoro-2-pyridyl]amino]-2-oxo-ethyl]-2-[(3,3-difluorocyclobutyl)methyl]pyrazole-3-carboxamide]",23 mL/min/kg,–,–
"Cc1cc(-c2ccc(NC(=O)[C@@H](NC(=O)c3cnnn3C(C)C)C(C3CC3)C3CC3)nc2F)c(C)[n+]([O-])c1 [Example 23, N-[(1S)-1-(dicyclopropylmethyl)-2-[[5-(2,5-dimethyl-1-oxido-pyridin-1-ium-3-yl)-6-fluoro-2-pyridyl]amino]-2-oxo-ethyl]-3-isopropyl-triazole-4-carboxamide]",<8 mL/min/kg,–,–
"Cc1cc(-c2ccc(NC(=O)[C@@H](NC(=O)c3ccnn3CC(F)F)C(C3CC3)C3CC3)nc2F)c(C)[n+]([O-])c1 [Example 24, N-[(1S)-1-(dicyclopropylmethyl)-2-[[5-(2,5-dimethyl-1-oxido-pyridin-1-ium-3-yl)-6-fluoro-2-pyridyl]amino]-2-oxo-ethyl]-2-(2,2-difluoroethyl)pyrazole-3-carboxamide]",<8 mL/min/kg,–,–

# More lines, now with the values ahead:
HLM Clapp [1],solubility at 24 h (Solubility assay),Solubility at pH 6.5 (Solubility assay),Compound
<8 mL/min/kg,38 µg/mL,–,"CC(C)n1nccc1C(=O)N[C@H](C(=O)Nc1ccc(-c2ccc[n+]([O-])c2C2CC2)c(F)n1)C(C1CC1)C1CC1 [Example 7, N-[(1S)-2,2-dicyclopropyl-1-[[5-(2-cyclopropyl-1-oxido-pyridin-1-ium-3-yl)-6-fluoro-2-pyridyl]carbamoyl]ethyl]-2-isopropyl-pyrazole-3-carboxamide]"
<8 mL/min/kg,18 µg/mL,–,"Cc1c(-c2ccc(NC(=O)[C@@H](NC(=O)c3ccnn3C(C)C)C(C3CC3)C3CC3)nc2Cl)cc(F)c[n+]1[O-] [Example 19, N-[(1S)-1-[[6-chloro-5-(5-fluoro-2-methyl-1-oxido-pyridin-1-ium-3-yl)-2-pyridyl]carbamoyl]-2,2-dicyclopropyl-ethyl]-2-isopropyl-pyrazole-3-carboxamide]"
<8 mL/min/kg,35 µg/mL,–,"CCc1c(-c2ccc(NC(=O)[C@@H](NC(=O)c3ccnn3C(C)C)C(C3CC3)C3CC3)nc2F)ccc[n+]1[O-] [Example 5, N-[(1S)-1-(dicyclopropylmethyl)-2-[[5-(2-ethyl-1-oxido-pyridin-1-ium-3-yl)-6-fluoro-2-pyridyl]amino]-2-oxo-ethyl]-2-isopropyl-pyrazole-3-carboxamide]"
<8 mL/min/kg,19 µg/mL,–,"Cc1c(-c2ccc(NC(=O)[C@@H](NC(=O)c3ccnn3C(C)C)C(C3CC3)C3CC3)nc2F)c[n+]([O-])cc1C(F)F [Example 48, N-[(1S)-1-(dicyclopropylmethyl)-2-[[5-[5-(difluoromethyl)-4-methyl-1-oxido-pyridin-1-ium-3-yl]-6-fluoro-2-pyridyl]amino]-2-oxo-ethyl]-2-isopropyl-pyrazole-3-carboxamide]"
<8 mL/min/kg,–,–,"Cc1cc(-c2ccc(NC(=O)[C@@H](NC(=O)c3ccnn3C(F)F)C(C3CC3)C3CC3)nc2F)c(C)[n+]([O-])c1 [Example 26, N-[(1S)-1-(dicyclopropylmethyl)-2-[[5-(2,5-dimethyl-1-oxido-pyridin-1-ium-3-yl)-6-fluoro-2-pyridyl]amino]-2-oxo-ethyl]-2-(difluoromethyl)pyrazole-3-carboxamide]"
9 mL/min/kg,74 µg/mL,–,"Cc1cc[n+]([O-])c(C)c1-c1ccc(NC(=O)[C@@H](NC(=O)c2ccnn2C(C)C)C(C2CC2)C2CC2)nc1F [Example 4, N-[(1S)-1-(dicyclopropylmethyl)-2-[[5-(2,4-dimethyl-1-oxido-pyridin-1-ium-3-yl)-6-fluoro-2-pyridyl]amino]-2-oxo-ethyl]-2-isopropyl-pyrazole-3-carboxamide]"
41 mL/min/kg,–,<1 μg/mL,"Cc1c(-c2ccc(NC(=O)[C@@H](NC(=O)c3ccnn3C(C)C)C(C3CC3)C3CC3)nc2F)c(C(F)(F)F)cc[n+]1[O-] (single isomer, unassigned) [Example 55]"
250 mL/min/kg,–,–,"Cc1cc(-c2ccc(NC(=O)[C@@H](NC(=O)c3ccnn3C3CCC3)C(C3CC3)C3CC3)nc2F)c(C)[n+]([O-])c1 [Example 25, 2-cyclobutyl-N-[(1S)-1-(dicyclopropylmethyl)-2-[[5-(2,5-dimethyl-1-oxido-pyridin-1-ium-3-yl)-6-fluoro-2-pyridyl]amino]-2-oxo-ethyl]pyrazole-3-carboxamide]"
<8 mL/min/kg,–,–,"CC(C)n1nccc1C(=O)N[C@H](C(=O)Nc1ccc(-c2c[n+]([O-])ccc2C2CC2)c(F)n1)C(C1CC1)C1CC1 [Example 47, N-[(1S)-2,2-dicyclopropyl-1-[[5-(4-cyclopropyl-1-oxido-pyridin-1-ium-3-yl)-6-fluoro-2-pyridyl]carbamoyl]ethyl]-2-isopropyl-pyrazole-3-carboxamide]"
<8 mL/min/kg,–,–,"Cc1cc(-c2ccc(NC(=O)[C@@H](NC(=O)c3ccnn3C3CC3)C(C3CC3)C3CC3)nc2F)c(C)[n+]([O-])c1 [Example 27, 2-cyclopropyl-N-[(1S)-1-(dicyclopropylmethyl)-2-[[5-(2,5-dimethyl-1-oxido-pyridin-1-ium-3-yl)-6-fluoro-2-pyridyl]amino]-2-oxo-ethyl]pyrazole-3-carboxamide]"
